# Key:
# Assay type in all cases: in vivo
# [1] = test system: sedge, umbrella (small-flower umbrella sedge, Cyperus difformis); assay: Test B flooded paddy test, visual plant response rating; details: 250 g ai/ha, Flood, applied to paddy water, 2-leaf stage, evaluated after 13 to 15 days
# Procedure, shortened: (§1)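 Visual scores compare treated plants with controls after 13 to 15 days of greenhouse growth. Treatment was made into paddy water standing 3 cm above the soil, with plants at the 2-leaf stage and flooding maintained throughout.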
# rice (Oryza sativa) = assay: as above; details: 250 g ai/ha, Flood, applied to paddy water, 2-leaf stage, evaluated after 13 to 15 days
# Procedure, shortened: as §1
# [2] = test system: barnyardgrass (Echinochloa crus-galli); assay: as above; details: 250 g ai/ha, Flood, applied to paddy water, 2-leaf stage, evaluated after 13 to 15 days
# Procedure, shortened: as §1
# [3] = test system: ducksalad (Heteranhera limosa); assay: as above; details: 250 g ai/ha, Flood, applied to paddy water, 2-leaf stage, evaluated after 13 to 15 days
# Procedure, shortened: as §1
# [4] = test system: Italian ryegrass (Lolium multiflorum); assay: Test A postemergence, visual plant response rating; details: for Ryegrass, Italian plant response rating (0 to 100 scale): 500 g ai/ha, postemergence, 0 is no effect, 100 is complete control; for Ryegrass, Italian plant response rating: Postemergence, 125 g ai/ha, 0 to 100 scale (0 no effect, 100 complete control)
# Procedure, shortened: (§2)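 Greenhouse evaluation, approx. 10 days post-spray. Soil: loam + sand. Postemergence stage: 1–2 leaves, height 2–10 cm. Vehicle: non-phytotoxic solvent blend with surfactant. Score: visual injury on a 0 (no effect) to 100 (complete control) scale.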
# corn (Zea mays) = assay: Test A postemergence, visual plant response rating; details: for Corn plant response rating (0 to 100 scale): 500 g ai/ha, postemergence, 0 is no effect, 100 is complete control; for Corn plant response rating: Postemergence, 125 g ai/ha, 0 to 100 scale (0 no effect, 100 complete control)
# Procedure, shortened: as §2
# [5] = test system: wheat (Triticum aestivum); assay: Test A postemergence, visual plant response rating; details: for Wheat plant response rating (0 to 100 scale): 500 g ai/ha, postemergence, 0 is no effect, 100 is complete control; for Wheat plant response rating: Postemergence, 125 g ai/ha, 0 to 100 scale (0 no effect, 100 complete control)
# Procedure, shortened: as §2
# kochia (Kochia scoparia) [6] = assay: Test A postemergence, visual plant response rating; details: for Kochia plant response rating (0 to 100 scale): 500 g ai/ha, postemergence, 0 is no effect, 100 is complete control; for Kochia plant response rating: Postemergence, 125 g ai/ha, 0 to 100 scale (0 no effect, 100 complete control)
# Procedure, shortened: as §2
# [7] = test system: foxtail, green (green foxtail, Setaria viridis); assay: Test A postemergence, visual plant response rating; details: for Foxtail, Green plant response rating (0 to 100 scale): 500 g ai/ha, postemergence, 0 is no effect, 100 is complete control; for Foxtail, Green plant response rating: Postemergence, 125 g ai/ha, 0 to 100 scale (0 no effect, 100 complete control)
# Procedure, shortened: as §2
# [8] = test system: ragweed (common ragweed, Ambrosia elatior); assay: Test A postemergence, visual plant response rating; details: for Ragweed plant response rating (0 to 100 scale): 500 g ai/ha, postemergence, 0 is no effect, 100 is complete control; for Ragweed plant response rating: Postemergence, 125 g ai/ha, 0 to 100 scale (0 no effect, 100 complete control)
# Procedure, shortened: as §2
# [9] = test system: blackgrass (Alopecurus myosuroides); assay: Test A postemergence, visual plant response rating; details: for Blackgrass plant response rating (0 to 100 scale): 500 g ai/ha, postemergence, 0 is no effect, 100 is complete control; for Blackgrass plant response rating: Postemergence, 125 g ai/ha, 0 to 100 scale (0 no effect, 100 complete control)
# Procedure, shortened: as §2
# [10] = test system: barnyardgrass (Echinochloa crus-galli); assay: Test A postemergence, visual plant response rating; details: for Barnyardgrass plant response rating (0 to 100 scale): 500 g ai/ha, postemergence, 0 is no effect, 100 is complete control; for Barnyardgrass plant response rating: Postemergence, 125 g ai/ha, 0 to 100 scale (0 no effect, 100 complete control)
# Procedure, shortened: as §2
# [11] = test system: galium (catchweed bedstraw, Galium aparine); assay: Test A postemergence, visual plant response rating; details: for Galium plant response rating (0 to 100 scale): 500 g ai/ha, postemergence, 0 is no effect, 100 is complete control; for Galium plant response rating: Postemergence, 125 g ai/ha, 0 to 100 scale (0 no effect, 100 complete control)
# Procedure, shortened: as §2
# [12] = test system: pigweed (Amaranthus retroflexus); assay: Test A postemergence, visual plant response rating; details: for Pigweed plant response rating (0 to 100 scale): 500 g ai/ha, postemergence, 0 is no effect, 100 is complete control; for Pigweed plant response rating: Postemergence, 125 g ai/ha, 0 to 100 scale (0 no effect, 100 complete control)
# Procedure, shortened: as §2
# [13] = test system: Italian ryegrass (Lolium multiflorum); assay: Test A preemergence, visual plant response rating; details: for Ryegrass, Italian plant response rating (0 to 100 scale): approx. 10 days
# Procedure, shortened: as §2
# kochia (Kochia scoparia) [14] = assay: Test A preemergence, visual plant response rating; details: for Kochia plant response rating (0 to 100 scale): approx. 10 days
# Procedure, shortened: as §2
# [15] = test system: foxtail, green (green foxtail, Setaria viridis); assay: Test A preemergence, visual plant response rating; details: for Foxtail, Green plant response rating (0 to 100 scale): approx. 10 days
# Procedure, shortened: as §2
# [16] = test system: ragweed (common ragweed, Ambrosia elatior); assay: Test A preemergence, visual plant response rating; details: for Ragweed plant response rating (0 to 100 scale): approx. 10 days
# Procedure, shortened: as §2
# [17] = test system: barnyardgrass (Echinochloa crus-galli); assay: Test A preemergence, visual plant response rating; details: for Barnyardgrass plant response rating (0 to 100 scale): approx. 10 days
# Procedure, shortened: as §2
# [18] = test system: pigweed (Amaranthus retroflexus); assay: Test A preemergence, visual plant response rating; details: for Pigweed plant response rating (0 to 100 scale): approx. 10 days
# Procedure, shortened: as §2
# [19] = 125 g ai/ha, preemergence, 0 to 100 scale, 0 no effect, 100 complete control
Compound,"Plant response rating, Sedge, Umbrella (0 to 100 scale, 0 is no effect, 100 is complete control) [1]","Plant response rating, Rice (0 to 100 scale, 0 is no effect, 100 is complete control) (rice (Oryza sativa))","Plant response rating, Barnyardgrass (0 to 100 scale, 0 is no effect, 100 is complete control) [2]","Plant response rating, Ducksalad (0 to 100 scale, 0 is no effect, 100 is complete control) [3]","Ryegrass, Italian plant response rating (0 to 100 scale) [4]","Ryegrass, Italian plant response rating [4]",Corn plant response rating (0 to 100 scale) (corn (Zea mays)),Corn plant response rating (corn (Zea mays)),Wheat plant response rating (0 to 100 scale) [5],Wheat plant response rating [5],Kochia plant response rating (0 to 100 scale) (kochia (Kochia scoparia) [6]),Kochia plant response rating (kochia (Kochia scoparia) [6]),"Foxtail, Green plant response rating (0 to 100 scale) [7]","Foxtail, Green plant response rating [7]",Ragweed plant response rating (0 to 100 scale) [8],Ragweed plant response rating [8],Blackgrass plant response rating (0 to 100 scale) [9],Blackgrass plant response rating [9],Barnyardgrass plant response rating (0 to 100 scale) [10],Barnyardgrass plant response rating [10],other results
CO/N=C(\c1c(O)c(C)nn(C)c1=O)c1cccc2ccccc12 [Compound 26],0,0,0,0,70,70,30,0,10,0,90,80,80,60,100,90,90,80,60,50,"Galium plant response rating (0 to 100 scale) [11]: 100; Galium plant response rating [11]: 90; Pigweed plant response rating (0 to 100 scale) [12]: 90; Pigweed plant response rating [12]: 60; Ryegrass, Italian plant response rating (0 to 100 scale) ([13]; 125 g ai/ha Preemergence): 70; Ryegrass, Italian plant response rating (0 to 100 scale) ([13]; 500 g ai/ha Preemergence): 100; Kochia plant response rating (0 to 100 scale) (kochia (Kochia scoparia) [14]; 125 g ai/ha Preemergence): 50; Kochia plant response rating (0 to 100 scale) (kochia (Kochia scoparia) [14]; 500 g ai/ha Preemergence): 80; Foxtail, Green plant response rating (0 to 100 scale) ([15]; 125 g ai/ha Preemergence): 70; Foxtail, Green plant response rating (0 to 100 scale) ([15]; 500 g ai/ha Preemergence): 100; Ragweed plant response rating (0 to 100 scale) ([16]; 125 g ai/ha Preemergence): 90; Ragweed plant response rating (0 to 100 scale) ([16]; 500 g ai/ha Preemergence): 100; Barnyardgrass plant response rating (0 to 100 scale) ([17]; 125 g ai/ha Preemergence): 40; Barnyardgrass plant response rating (0 to 100 scale) ([17]; 500 g ai/ha Preemergence): 80; Pigweed plant response rating (0 to 100 scale) ([18]; 125 g ai/ha Preemergence): 100; Pigweed plant response rating (0 to 100 scale) ([18]; 500 g ai/ha Preemergence): 100"
CO/N=C(/c1ccccc1Cl)c1c(O)c(C)nn(C)c1=O [Compound 63],0,0,0,0,70,30,0,0,20,0,30,10,10,0,50,30,80,10,0,0,"Galium plant response rating (0 to 100 scale) [11]: 80; Galium plant response rating [11]: 60; Pigweed plant response rating (0 to 100 scale) [12]: 50; Pigweed plant response rating [12]: 30; Ryegrass, Italian plant response rating [13, 19]: 10; Ryegrass, Italian plant response rating (0 to 100 scale) ([13]; 500 g ai/ha Preemergence): 50; Kochia plant response rating (kochia (Kochia scoparia) [14]; [19]): 0; Kochia plant response rating (0 to 100 scale) (kochia (Kochia scoparia) [14]; 500 g ai/ha Preemergence): 20; Foxtail, Green plant response rating [15, 19]: 0; Foxtail, Green plant response rating (0 to 100 scale) ([15]; 500 g ai/ha Preemergence): 20; Ragweed plant response rating [16, 19]: 30; Ragweed plant response rating (0 to 100 scale) ([16]; 500 g ai/ha Preemergence): 70; Barnyardgrass plant response rating [17, 19]: 0; Barnyardgrass plant response rating (0 to 100 scale) ([17]; 500 g ai/ha Preemergence): 0; Pigweed plant response rating [18, 19]: 0; Pigweed plant response rating (0 to 100 scale) ([18]; 500 g ai/ha Preemergence): 80"
Cc1ccccc1/C(=N\OC(C)C)c1c(O)c(C)nn(C)c1=O [Compound 20],0,0,0,0,50,20,0,0,0,0,50,0,60,30,80,60,60,20,50,30,"Galium plant response rating (0 to 100 scale) [11]: 90; Galium plant response rating [11]: 80; Pigweed plant response rating (0 to 100 scale) [12]: 70; Pigweed plant response rating [12]: 60; Ryegrass, Italian plant response rating (0 to 100 scale) ([13]; 125 g ai/ha Preemergence): 30; Ryegrass, Italian plant response rating (0 to 100 scale) ([13]; 500 g ai/ha Preemergence): 70; Kochia plant response rating (0 to 100 scale) (kochia (Kochia scoparia) [14]; 125 g ai/ha Preemergence): 0; Kochia plant response rating (0 to 100 scale) (kochia (Kochia scoparia) [14]; 500 g ai/ha Preemergence): 0; Foxtail, Green plant response rating (0 to 100 scale) ([15]; 125 g ai/ha Preemergence): 0; Foxtail, Green plant response rating (0 to 100 scale) ([15]; 500 g ai/ha Preemergence): 60; Ragweed plant response rating (0 to 100 scale) ([16]; 125 g ai/ha Preemergence): 30; Ragweed plant response rating (0 to 100 scale) ([16]; 500 g ai/ha Preemergence): 90; Barnyardgrass plant response rating (0 to 100 scale) ([17]; 125 g ai/ha Preemergence): 20; Barnyardgrass plant response rating (0 to 100 scale) ([17]; 500 g ai/ha Preemergence): 70; Pigweed plant response rating (0 to 100 scale) ([18]; 125 g ai/ha Preemergence): 80; Pigweed plant response rating (0 to 100 scale) ([18]; 500 g ai/ha Preemergence): 100"

# — patent publication US20210045385A1, “PYRIDAZINONE-SUBSTITUTED KETOXIMES AS HERBICIDES” (FMC Corporation, priority 2018, published 2021)
